B1: rLG3: recombinant His6-tagged LG3 domain, residues 1128-1364 of human laminin α3 chain (protein, listed as Homo sapiens)
chain: VRLNDTVGVTKKCSEDWKLVRSASFSRGGQLSFTDLGLPPTDHLQASFGFQTFQPSGILLDHQTWTRNLQVTLEDGYIELSTSDSGGPIFKSPQTYMDGLLHYVSVISDNSGLRLLIDDQLLRNSKRLKHISSSRQSLRLGGSNFEGCISNVFVQRLSLSPEVLDLTSNSLKRDVSLGGCSLNKPPFLMLLKGSTRFNKTKTFRINQLLQDTPVASPRSVKVWQDACSPLPKTQANH
modifications: His6 tag
notes: recombinant His6-tagged LG3 domain, residues 1128-1364 of human laminin α3 chain

Key:
Type in all cases: cell-based, human
NHEF = assay: Cell proliferation on coated plates, viable cell count by trypan blue exclusion; settings: peptide P4 20 μg/12-well plate; 1-4 days; compared with PS-coated plate
Excerpt: Normal human […] (NHEF) were taken from foreskin tissue of healthy 1- to 3-year-old people, and washed three times with calcium- and magnesium-free Hanks balanced salt solution containing 3× antibiotics (CMF-HBSS; GibcoBRL), and prepared by explant culture. When cell density was about 80%, NHEFs were divided by the ratio of 1:3 and cultured until cell density reached about 80%. […] were subcultured 4 times the same way as the above and used.
(§1) Polystyrene (PS), BSA (bovine serum albumin) and synthetic peptide P4 were coated on […]. NHEK (PD 13.0; 2×10^4 cells/12-well plate) and NHEF (passage number 4) cultures were added to the 12-well plate coated with the polystyrene (PS), BSA (1%) and synthetic peptide P4 (20 μg/12-well plate), and cultured for 1, 2, 3, or 4 days. Viable cells were counted by trypan blue exclusion in a hemocytometer. Data are expressed as mean ±SD (n=4).

HOK-16B cells [1] = assay: Cell adhesion assay on coated plates (crystal violet absorbance at 570 nm / cell counting)
Description: The cell adhesion assay was performed according to a method reported by Okazaki et al. (J. Biol. Chem., 277:37070, 2002). In detail, 24-well culture plates (Nunc, Roskilde, Denmark) were coated with various amounts of rLG proteins at 4° C. overnight. The peptides were also coated on plates by drying overnight. The substrate-coated on the plates were blocked by adding 1% heat-inactivated bovine serum albumin (BSA) in PBS for 1 h at 37° C. and washed twice with PBS. The cells in the Experimental Example 1, detached by 0.05% tyrpsin and 0.53 mM EDTA in PBS and resuspended in culture media, were added (1×10^5 cells/500 μl) to each plate and incubated for 1 h at 37° C. After incubation, unattached cells were removed by rinsing twice with PBS. The attached cells were fixed with 10% formalin in PBS for 15 min, rinsed twice with PBS, and stained with 0.5% crystal violet for 1 h. The plates were gently rinsed with DDW three times and lysed with 2% SDS for 5 min. Absorbance was measured at 570 nm in a Bio-Rad Model 550 microplate reader (BioRad).
The cell adhesion and spreading activities on peptide-coated plates were examined using HOK-16B cells by the same method as Experimental Example 2. 24-well plates were coated with 10, 20, 30, 40 and 50 μg/well peptides P1 to P5, respectively. HOK-16B cells were added to peptide-coated plates and cultured for 1 h in serum-free medium for 1 hr. After the unbound cells were washed off, adherent cells were fixed and stained with crystal violet, and then the stained cells were analyzed. Absorbance was measured at 570 nm in a microplate reader. BSA and the rLG3 were used as negative control and positive control, respectively.
It was observed that peptide P4 promotes strong cell adhesion and spreading activities and binds to integrin α3β1 in the Example 4. Therefore, to determine the biologically active core sequences in peptide P4, five synthetic peptides (P4 D-I to P4 D-V), which are C-terminal truncated peptides from the peptide P4, and six synthetic peptides (P4 D-N1 to P4 D-N6), which are N-terminal truncated peptides from the peptide P4 were prepared (FIG. 6A) and examined for HOK-16B cell adhesion and spreading activities on peptide-coated plates by the present inventors. 24-well plates were coated with 10 μg/well C-terminal truncated peptides or N-terminal truncated peptides, and HOK-16B cells were added to the plates, and then cultured in serum-free medium for 1 hr. After the unbound cells were washed off, the adherent cells were fixed to stain with crystal violet, and the stained cells were analyzed. Absorbance was measured at 570 nm in a microplate reader. Peptide P4 and BSA were used as the positive and negative controls, respectively.
24-well plates were coated with 10 μg/well peptides, and HOK-16B cells were added to the plates, and then cultured in serum-free medium for 1 hr. After the unbound cells were washed off, the adherent cells were fixed to stain with crystal violet, and the stained cells were analyzed. Peptide P4 and BSA were used as the positive and negative controls, respectively. The results were expressed as mean ±SD of the four independent experiments.

HOK-16B cells [2] = assay: Competition of soluble peptides for HOK-16B cell adhesion to rLG3-coated plates; settings: HOK-16B cells preincubated 30 min with 100 μg/ml peptide, control without peptide = 100%
Description: To identify the receptor of the HOK-16B cells for rLG3 protein and peptide P4, 5 μg/ml of mAbs to different types of integrins or 5 mM EDTA were preincubated individually with HOK-16B cells in 0.5 ml incubation solution (2×10^5 cells/ml) for 30 min at 37° C. The preincubated cells were then transferred onto plates precoated with either 25 μg/ml of rLG3 protein or 10 μg/well of peptide P4 and incubated for 1 h at 37° C. Attached cells were then quantified by the cell adhesion assay described above in the Experimental Example 2, and cell adhesion activity inhibition rate were measured.
Accordingly, the inventors examined the ability of peptide P4 to compete for cell adhesion activity to rLG3 domain by the method of Experimental Example 4. First, the purified rLG3 proteins (25 μg/well) were coated onto 24-well plates. HOK-16B cells were preincubated with the various peptides (100 μg/ml) or without the peptide for 30 min at 37° C. The preincubated cells were then added to rLG3-coated plates and cultured for 1 h in serum-free medium. The unbound cells were washed off and the adherent cells were fixed and stained with crystal violet. The average adhesion activity of the control cultures (HOK-16B cells preincubated without peptide) was considered 100%, the results are expressed as mean ±SD of the four independent experiments.

NHEK = assay: Cell proliferation on coated plates, viable cell count by trypan blue exclusion; settings: peptide P4 20 μg/12-well plate; 1-4 days; compared with PS-coated plate
Description: Normal human epidermal keratinocytes (NHEK) tissue samples were prepared from foreskin tissue of healthy 1- to 3-year-old people. The tissue samples were washed three times with calcium- and magnesium-free Hanks balanced salt solution containing 3× antibiotics (CMF-HBSS; GibcoBRL), and added with CMF-HBSS containing collgenase (collgenase type II, 1.0 mg/ml; sigma Chemical Co.) and dispase (dispase grade II, 2.4 mg/ml; Boeringer-Mannheim) to isolate epithelial layer from epidermal tissue, and then, cultured in 95% air and 5% CO2 at 37° C. for 90 min. NHEKs were prepared from the isolated epidermal tissue, and cultured in epithelial cell medium containing 0.15 mM calcium and growth factor bullet kit (KGM; Clonetics Corp.). When cell density was about 70%, NHEKs were divided into 1×10^5 cells per 60-mm petri dish and cultured until cell density reached about 70%. NHEKs were subcultured two times the same way as the above and used.
as §1

Molecule | increase in the number of NHEFs according to cell proliferation (NHEF) | coating concentration at which maximum cell adhesion was obtained (HOK-16B cells [1]; HOK-16B cells, peptide-coated 24-well plates) [μg/well] | cell adhesion activity of synthetic peptides (HOK-16B cells [1]; HOK-16B cells, plates coated with 10-50 μg/well peptide, 1 h, serum-free medium) | inhibition of cell adhesion to rLG3 (HOK-16B cells [2]) | increase in the number of NHEKs according to cell proliferation (NHEK) | reduction of the level of cell adhesion compared to the 5 μg/ml laminin-coated control (HOK-16B cells [1]; 50 μg/ml rLG3 protein coating) | cell adhesion activity of rLG proteins (HOK-16B cells [1]; HOK-16B cells on rLG protein-coated plates, 1 h, compared to BSA control) | coating concentration at which maximum adhesion occurs (HOK-16B cells [1]; HOK-16B cells, rLG protein-coated plates) [µg/mL]
PPFLMLLKGSTR [peptide P4] | similar | ≥ 10 | strong dose-dependent cell adhesion activity | approximately 51% | increased more than that on PS-coated plate | – | – | –
B1 | – | – | – | – | – | approximately 45% | exhibited the adhesive activity | 25

From patent publication US7517654B2, “Peptide and a derivative thereof promoting cell adhesion and spreading” (Seoul National University Industry Foundation, priority 2004, dated 2009)
